Results on four compounds are retold here after ChEMBL document CHEMBL1148908, “Biscoumarin derivatives from Edgeworthia gardneri that inhibit the lyase activity of DNA polymerase beta” (J Nat Prod, 2004).

Activity calls are given as the source filed them. The rule behind the calls is not given here.

Assay [1] has as its target DNA polymerase beta (Rattus norvegicus) (UniProt P06766). Kind of assay: Inhibition of rat DNA polymerase beta-mediated DNA polymerization up to 100 ug/mL after 1 hr.
Another assay deals with DNA polymerase beta (Rattus norvegicus, UniProt P06766). Put plainly: Inhibition of lyase activity of rat DNA polymerase beta after 30 mins.
Assay [2] deals with A549. Kind of assay: Cytotoxicity against human A549 cells at 6 uM after 48 hrs. The settings on record: A549, 48 h. The class given is functional.
In assay [3] the test system is A549. Put plainly: Cytotoxicity against human A549 cells at 6 uM after 48 hrs in presence of 0.5 uM blenoxane. The class given is functional.
In assay [4] the test system is A549. Put plainly: Cytotoxicity against human A549 cells at 0.5 uM after 48 hrs. The class given is functional, cell-based.

Consider `COc1cc2cc(Oc3ccc4ccc(=O)oc4c3)c(=O)oc2cc1O` [DAPHNORETIN], for which the result in assay [1] was inactive. On DNA polymerase beta, this compound registered an IC50 of 122 µM.
Consider `O=c1ccc2ccc(Oc3cc4ccc(O)cc4oc3=O)cc2o1` [EDGEWORIN], for which the outcome in assay [1] was inactive. This compound also showed an inhibition at 6 µM with A549 [2] of 1.6%. Besides, the “inhibition (INH)” value in the assay on A549 [3] is listed as 50.7%.
On to `O=c1ccc2ccc(Oc3cc4cc(O)c(O)cc4oc3=O)cc2o1` [EDGEWORTHIN], for which, in assay [1], the result was inactive. Further, the IC50 at DNA polymerase beta came to 94.8 µM.
In the case of BLEOMYCIN SULFATE, the inhibition in the assay on A549 [4] came to 35.5%.
